Data reported in patent US11718645B2, “Macrocyclic therapeutic agents, methods of manufacture, and methods of treatment” (University of Florida Research Foundation, Incorporated, priority 2014, dated 2023).

Assays:
[1] = Cellular stability in HCT116 cell lysate; type: in vitro ADME, human; conditions: HCT116 protein lysate 0.7 mg/mL, up to 24 h, FIG. 2D
Protocol: Aliquots of HCT116 cell lysates were diluted with 25 mM Tris-HCl buffer, pH 8.0, to give a final reaction volume of 100 μL and protein concentration of 0.7 mg/mL. Cell lysate solutions were incubated with 10 μL of apratoxin A, BK, BL, BM, or BN (25 μg/mL) for 0.25 min to 24 h (nine time points). Remaining apratoxin A, BK, BL, BM, or BN were extracted from the reaction solution at the end of the incubation periods with ethyl acetate using the same procedure as described for the plasma stability assay.
(§1) Analysis of apratoxin A, S4 (BK), S7 (BL), S8 (BM) and S9 (BN) was done by using HPLC-MS [column, Onyx Monolithic C18 (3.0×100 mm), Phenomenex (Torrance, Calif.); solvent, water (solvent A) acetonitrile (solvent B); flow rate, 0.5 ml/min; detection by electrospray ionization-MS in positive ion mode (MRM scan)]. A stepwise gradient elution was used starting at 60% B and 40% A, then increasing to 80% B at 5 min and maintained at this condition for 5 min. Parameters were optimized before analysis by using direct syringe infusion. The retention times (tR, min; MRM ion pair) of the analytes and internal standard are as follows: harmine (2.2; 213.1→169.9), apratoxin A (4.7; 841.4→445.2), apratoxin S4 (BK) (4.1; 828.5→432.2), apratoxin S7 (BL) (4.05; 814.5→418.2), apratoxin S8 (BM) (5.2; 842.5→446.2), apratoxin S9 (BN) (4.9; 828.5→432.2). Compound-dependent parameters used were as follows: apratoxin A, declustering potential (DP) 51, entrance potential (EP) 12, collision energy (CE) 45, collision cell exit potential (CXP) 6, collision cell entrance potential (CEP) 32; and harmine, DP 56.0, EP 4.5, CE 44.0, CXP 5, CEP 16.0. Source gas parameters used were as follows: curtain gas, 15.0; collision gas low, ionspray voltage 5500; temperature, 600.0; ion source gas 150.0; ion source gas 2 60.0.
(§2) Calibration curves for apratoxin A, S4 (BK), S7 (BL), S8 (BM) and S9 (BN) in the presence of mouse serum, HCT116 cell lysates, and aqueous solutions were generated by least-square linear regression analysis of the analyte peak area and internal standard peak area ratio against the nominal concentration of the standard solutions. A linear regression analysis was performed, and the concentration of remaining apratoxins at each time point was determined through interpolation for plasma, cellular, and aqueous stability experiments. The amount of remaining apratoxins with microsome incubation was determined from the peak area ratio of apratoxins at tx (3 min to 3 h) and t0. All calculations were done by using Analyst 1.4.2 (Applied Biosystems) Quantitate Mode.

Microsomal stability = type: in vitro ADME, mouse
Protocol: HPLC-MS was done on a 3200 QTRAP (Applied Biosystems) equipped with a Shimadzu (Kyoto, Japan) UFLC System. Mouse serum and harmine were purchased from Sigma-Aldrich. Pooled CD1 mouse liver (female) microsomes were purchased from XenoTech, LCC (Lenexa, Kans.) with protein concentrations of 0.5 mg/ml. HCT116 cell lysates were prepared with PhosphoSafe lysis buffer (Novagen). Protein concentration was determined by using the BCA Assay. Analysis was carried out similarly as previously described [Liu, Y.; Salvador, L. A.; Byeon, S.; Ying, Y.; Kwan, J. C.; Law, B. K.; Hong, J.; Luesch. H. J. Pharmacol. Exp. Ther. 2010, 335, 351-361].
The stability of apratoxin A, S4 (BK), S7 (BL), S8 (BM) and S9 (BN) in the presence of mouse microsomes was determined by using an adaptation of a published procedure [Ackley, D. C.; Rockich, K. T.; Baker, T. R. Optimization in Drug Discovery: In Vitro Methods (Series: Methods in Pharmacology and Toxicology) (eds Yan Z, Caldwell J W) 2004, pp 151-162, Springer, New Jersey]. In brief, microsomes were added to prewarmed phosphate buffer (100 mM, pH 7.4) at 37° C. Apratoxin A, BK, BL, BM, or BN (3 μL) were added to the microsomal preparation followed by NADPH cofactor solution (1.3 mM NADP, 3.3 mM glucose 6-phosphate, 0.4 U/mL glucose-6-phosphate dehydrogenase, 3.3 mM MgCl2). The reaction was allowed to proceed for 3 min to 3 h (7 time points) at 37° C. (thermomixer, 1050 rpm). The reaction was quenched by addition of ethyl acetate and subsequently spiked with harmine. The zero time point was defined by denaturing the microsomes with ethyl acetate before the addition of apratoxins. Incubation of apratoxins with microsomes alone was also performed following the same procedure to determine NADPH-dependent metabolism. The final concentration of the incubation mixture contained 0.5 mg/ml protein concentration and 1 μM apratoxins.
as §1, §2

HCT116 xenograft = conditions: previous efficacious dose 0.25 mg/kg; cited from earlier work
HCT116 cells = assay: Cell viability assay (MTT); type: cell-based, human; conditions: determined after 48 h (n = 4)
Protocol: (§3) Human colon adenocarcinoma HCT116 cells were purchased from ATCC (Manassas, Va.) and cultured in Dulbecco's modified Eagle's medium (Invitrogen, Carlsbad, Calif.) supplemented with 10% fetal bovine serum (HyClone, Logan, Utah) at 37° C. humidified air and 5% CO2.
HCT116 cells were seeded at a density of 1×10^4 cells per well in 96-well plates. 24 h later the cells were treated with various concentrations of apratoxins or solvent control. After 48 h of incubation, cell viability was detected using MTT according to the manufacturer's instructions (Promega, Madison, Wis.).

[2] = Plasma stability in mouse serum; type: in vitro ADME; conditions: up to 24 h, FIG. 2C
Protocol: In vitro plasma stability of apratoxin A, S4 (BK), S7 (BL), S8 (BM) and S9 (BN) was done by using a modification of a published method [Chen, X.; Gardner, E. R.; Figg, W. D. J. Chromatogr. B Analyt. Technol. Biomed. Life Sci. 2008, 86, 153-158]. Ten microliters of apratoxin A, BK, BL, BM, or BN (25 μg/mL) were added to 100 μL of mouse serum, and the solution was vortex-mixed for 15 s and incubated for 0.25 min to 24 h (11 time points). At the end of each incubation period, 400 μL of ethyl acetate was added to each tube, followed by 200 μL of harmine to quench the reaction and to extract the remaining apratoxin A or S4 (BK), S7 (BL), S8 (BM) and S9 (BN). Samples were further incubated in a thermomixer at 27° C. (750 rpm, 5 min) and later centrifuged for 5 min at 1643 g. The ethyl acetate layer was collected and evaporated to dryness under nitrogen. Samples were reconstituted in 50 μL of acetonitrile. A volume of 10 μL of the reconstituted solution was injected into the HPLC-MS system.
as §1, with “Compound-dependent parameters used were as follows: apratoxin A, declustering potential (DP) 51, entrance potential (EP) 12, collision energy (CE) 45, collision cell exit potential (CXP) 6, collision cell entrance potential (CEP) 32; and harmine, DP 56.0, EP 4.5, CE 44.0, CXP 5, CEP 16.0. Source gas parameters used were as follows: curtain gas, 15.0; collision gas low, ionspray voltage 5500; temperature, 600.0; ion source gas 150.0; ion source gas 2 60.0.” left out
as §2

VEGF-A secretion = assay: Measurement of VEGF-A production (alphaLISA) in HCT116 culture supernatants; type: cell-based, human; conditions: determined after 12 h (n = 3)
Protocol: as §3
HCT116 cells (1×10^4 cells per well) were seeded in 96-well plates and one day later treated with various concentrations of apratoxins or solvent control. After 12 h of incubation, culture supernatants were collected for detection of VEGF-A by using an alphaLISA kit (PerkinElmer, Waltham, Mass.) following the manufacturer's instructions. Briefly, acceptor bead and anti-VEGF antibody were incubated first with the supernatants for 60 min, donor beads were added later and incubated for another 30 min and then VEGF-A levels detected using Envision (PerkinElmer).

CC[C@H](C)[C@H]1C(=O)N2CCC[C@H]2C(=O)O[C@H](C(C)(C)C)C[C@@H](C)C[C@H](O)[C@H](C)C2=N[C@@H](CCC(=O)N[C@@H](Cc3ccc(OC)cc3)C(=O)N(C)[C@@H](C)C(=O)N1C)CS2 [apratoxin S4 (BK), Apratoxin S4]
cellular stability [1]: excellent
% remaining (Microsomal stability; microsomes + NADPH, 0 min): 100%
% remaining (Microsomal stability; microsomes + NADPH, 3 min): 39.55 ± 1.06%
% remaining (Microsomal stability; microsomes + NADPH, 5 min): 32.20 ± 16.12%
% remaining (Microsomal stability; microsomes + NADPH, 15 min): 10.07 ± 1.46%
% remaining (Microsomal stability; microsomes + NADPH, 30 min): 9.58 ± 1.03%
% remaining (Microsomal stability; microsomes + NADPH, 60 min): 10.00 ± 0.71%
% remaining (Microsomal stability; microsomes + NADPH, 120 min): 6.02 ± 2.11%
% remaining (Microsomal stability; microsomes only, 0 min): 100%
% remaining (Microsomal stability; microsomes only, 3 min): 87.05 ± 1.63%
% remaining (Microsomal stability; microsomes only, 5 min): 70.80 ± 23.48%
% remaining (Microsomal stability; microsomes only, 15 min): 87.20 ± 2.83%
% remaining (Microsomal stability; microsomes only, 30 min): 73.85 ± 15.49%
% remaining (Microsomal stability; microsomes only, 60 min): 87.10 ± 1.41%
% remaining (Microsomal stability; microsomes only, 120 min): 55.25 ± 12.09%
in vivo activity (previous study) (HCT116 xenograft): extremely potent and active in vivo
IC50 (HCT116 cells): 1.43 nM
plasma stability [2]: excellent
IC50 (VEGF-A secretion): 0.32 nM
